From paper PMC3041981 (ACS medicinal chemistry letters, 2010)
Read-outs that look alike come from different tables or passages of the source.

Key:
[1] = system: locomotor activity in mice; test: Locomotor stimulant activity in mice; assay type: in vivo; conditions: for Time course of locomotor stimulant effect after injection: 30-min period at the start of each of four hours after administration
DAT = DAT (Rattus norvegicus, UniProt P23977); test: DAT binding in rat brain membranes
SERT = SERT (Rattus norvegicus, UniProt P31652); test: SERT binding in rat brain membranes; conditions: SERT versus DAT and NET binding
Chain of SERT (P31652 whole entry): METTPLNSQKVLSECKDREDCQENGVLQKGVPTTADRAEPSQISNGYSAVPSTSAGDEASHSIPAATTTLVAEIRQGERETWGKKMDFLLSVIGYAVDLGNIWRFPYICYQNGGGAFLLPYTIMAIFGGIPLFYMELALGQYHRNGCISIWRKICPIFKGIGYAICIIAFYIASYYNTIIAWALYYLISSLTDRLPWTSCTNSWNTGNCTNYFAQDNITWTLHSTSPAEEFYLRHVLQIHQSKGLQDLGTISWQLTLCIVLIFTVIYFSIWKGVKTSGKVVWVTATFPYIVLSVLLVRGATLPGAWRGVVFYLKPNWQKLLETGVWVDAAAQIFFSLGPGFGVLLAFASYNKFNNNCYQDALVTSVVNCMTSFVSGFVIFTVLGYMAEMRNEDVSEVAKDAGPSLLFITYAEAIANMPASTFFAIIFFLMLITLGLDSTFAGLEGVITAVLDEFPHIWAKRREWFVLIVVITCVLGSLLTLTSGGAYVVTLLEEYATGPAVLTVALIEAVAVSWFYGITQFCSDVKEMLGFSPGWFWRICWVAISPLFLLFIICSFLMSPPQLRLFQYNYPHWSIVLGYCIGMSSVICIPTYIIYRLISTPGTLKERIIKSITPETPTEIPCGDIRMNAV

Chain of DAT (P23977 whole entry): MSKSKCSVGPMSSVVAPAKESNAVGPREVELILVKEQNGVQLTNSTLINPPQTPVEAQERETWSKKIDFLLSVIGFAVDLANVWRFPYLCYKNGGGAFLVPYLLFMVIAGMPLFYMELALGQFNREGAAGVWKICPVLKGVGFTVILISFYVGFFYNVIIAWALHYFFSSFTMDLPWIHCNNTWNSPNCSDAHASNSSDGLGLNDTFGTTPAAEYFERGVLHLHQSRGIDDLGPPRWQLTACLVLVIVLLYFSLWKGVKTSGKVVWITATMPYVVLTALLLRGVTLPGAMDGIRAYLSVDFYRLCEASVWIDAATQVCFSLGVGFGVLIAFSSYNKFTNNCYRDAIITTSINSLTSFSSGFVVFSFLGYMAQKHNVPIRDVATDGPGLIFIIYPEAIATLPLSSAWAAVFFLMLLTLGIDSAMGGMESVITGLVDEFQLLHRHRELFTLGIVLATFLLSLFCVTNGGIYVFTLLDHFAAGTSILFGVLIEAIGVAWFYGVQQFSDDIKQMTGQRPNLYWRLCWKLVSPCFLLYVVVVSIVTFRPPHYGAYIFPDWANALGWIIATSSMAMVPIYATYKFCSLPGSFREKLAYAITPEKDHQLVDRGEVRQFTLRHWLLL

NC(=O)C[S+]([O-])C(c1ccccc1)c1ccccc1 (racemic) [(±)-1, 2-[(diphenylmethyl)sulfinyl]acetamide]
Time course of locomotor stimulant effect after injection [1]: evident up to four hours after injection

[O-][S+](CCNCCCc1ccccc1)C(c1ccccc1)c1ccccc1 (stereo not shown) [9a]
DAT binding affinity, comparison in words (DAT): most potent DAT analogue in the series

CN(C)CC[S+]([O-])C(c1ccc(Cl)cc1)c1ccc(Cl)cc1 (stereo not shown) [9d]
Transporter selectivity in words (SERT): SERT-selective

NC(=O)C[S@+]([O-])C(c1ccccc1)c1ccccc1 [(+)-1]
Time course of locomotor stimulant effect after injection [1]: evident up to four hours after injection

NC(=O)C[S@@+]([O-])C(c1ccccc1)c1ccccc1 [(−)-1]
DAT binding affinity, comparison in words (DAT; rat brain membranes, within the series): slightly higher affinity than the S
Time course of locomotor stimulant effect after injection [1]: evident up to four hours after injection

COC(=O)[C@H]1[C@@H](OC(=O)c2ccccc2)C[C@@H]2CC[C@H]1N2C [cocaine]
Effect on locomotor activity (horizontal activity counts) ([1]; after injection, 6 mice per point, maximal effect compared with cocaine): greatest among the drugs
